Literature values, collected in patent US20260262633A1, “BORDEAUX MIXTURE/ORGANOSULFUR FUNGICIDE NANO-SUSPENSION DISPERSION” (priority 2023, published 2026).

Question: For basic copper sulfate, which solubility in water is on record?
Answer: 1.06 µg/mL
